Reference: ChEMBL document CHEMBL1146423, “Adenosine-1 active ligands: cirsimarin, a flavone glycoside from Microtea debilis” (J Nat Prod, 1997)
Activity calls are given as the source filed them. No cut-off for these calls is given here.

target: T1, Adenosine receptor A1 (Rattus norvegicus) (UniProt P25099); assay: Displacement of [3H]DPCPX from adenosine A1 receptor in rat forebrain membrane assessed as fraction of receptor bound radioligand at 100 ug/mL; type: cell membranes
T1 sequence (whole entry): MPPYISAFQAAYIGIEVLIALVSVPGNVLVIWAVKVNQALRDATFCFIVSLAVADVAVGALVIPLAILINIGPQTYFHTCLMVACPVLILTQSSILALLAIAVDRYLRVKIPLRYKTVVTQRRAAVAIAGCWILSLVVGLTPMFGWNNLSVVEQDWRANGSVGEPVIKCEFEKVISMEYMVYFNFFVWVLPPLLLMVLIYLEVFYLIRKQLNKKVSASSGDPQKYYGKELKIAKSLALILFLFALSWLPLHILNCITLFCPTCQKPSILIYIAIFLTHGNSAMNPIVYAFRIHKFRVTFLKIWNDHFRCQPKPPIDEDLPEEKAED

SMILES | Activity
C[C@@H]1O[C@@H](OC[C@H]2O[C@@H](Oc3c(-c4ccc(O)cc4)oc4cc(O)cc(O)c4c3=O)[C@H](O)[C@@H](O)[C@@H]2O)[C@H](O)[C@H](O)[C@H]1O | 37%
COc1cc2oc(-c3ccc(O)cc3)cc(=O)c2c(O)c1OC | 48%
O=c1cc(-c2ccc(O)cc2)oc2cc(O)cc(O)c12 | 50%
O=c1c(O[C@@H]2O[C@H](CO)[C@H](O)[C@H](O)[C@H]2O)c(-c2ccc(O)c(O)c2)oc2cc(O)cc(O)c12 | 86%
O=c1c(O)c(-c2ccc(O)cc2)oc2cc(O)cc(O)c12 | 18%
C[C@@H]1O[C@@H](OC[C@H]2O[C@@H](Oc3c(-c4ccc(O)c(O)c4)oc4cc(O)cc(O)c4c3=O)[C@H](O)[C@@H](O)[C@@H]2O)[C@H](O)[C@H](O)[C@H]1O | 103%
C[C@@H]1O[C@@H](Oc2c(-c3ccc(O)c(O)c3)oc3cc(O)cc(O)c3c2=O)[C@H](O)[C@H](O)[C@H]1O (stereo in doubt; 8) | 58%
O=c1cc(-c2ccc(O)cc2)oc2c([C@@H]3O[C@H](CO)[C@@H](O)[C@H](O)[C@H]3O)c(O)cc(O)c12 | 103%
C[C@@H]1O[C@@H](Oc2c(-c3ccc(O)c(O)c3)oc3cc(O)cc(O)c3c2=O)[C@H](O)[C@H](O)[C@H]1O (stereo in doubt; 6) | 50%
COc1cc(-c2cc(=O)c3c(O)cc(O[C@@H]4O[C@H](CO)[C@@H](O)[C@H](O)[C@H]4O[C@@H]4O[C@@H](C)[C@H](O)[C@@H](O)[C@H]4O)cc3o2)ccc1O | 94%
O=c1c(O)c(-c2cc(O)c(O)c(O)c2)oc2cc(O)cc(O)c12 | 24%
COc1cc2oc(-c3ccc(O[C@@H]4O[C@H](CO)[C@@H](O)[C@H](O)[C@H]4O)cc3)cc(=O)c2c(O)c1OC [CIRSIMARIN] | 2%

target: T2, Adenosine receptor A1 (Rattus norvegicus, UniProt P25099); assay: Displacement of [3H]DPCPX from adenosine A1 receptor in rat forebrain membrane; type: cell membranes
T2 sequence (P25099 whole entry): T1 sequence (whole entry)

SMILES | Ki
COc1cc2oc(-c3ccc(O[C@@H]4O[C@H](CO)[C@@H](O)[C@H](O)[C@H]4O)cc3)cc(=O)c2c(O)c1OC [CIRSIMARIN] | 3.2 µM

target: T1, Adenosine receptor A1 (Rattus norvegicus); assay: Displacement of [3H]DPCPX from adenosine A1 receptor in rat forebrain membrane in presence of GTP; type: cell membranes

SMILES | Activity
COc1cc2oc(-c3ccc(O[C@@H]4O[C@H](CO)[C@@H](O)[C@H](O)[C@H]4O)cc3)cc(=O)c2c(O)c1OC [CIRSIMARIN] | Active
